Data set [1] deals with Single-donor human red blood cells. In words: Hemolysis assay. Type of data set: cell-based. On the procedure: Single-donor human red blood cells (Innovative Research, no. IWB3ALS) were washed in PBS and adjusted to a concentration of 1 × 10^9 cells/ml. Each peptide was added individually to 200 μl of cells at a concentration of either 300 μg/ml (SySA library) or 128 μg/ml (SySA-5 optimization library) in a 96-well polypropylene plate (Corning, 3879). PBS alone and 1% Triton X-100 were used for background normalization and 100% hemolysis, respectively. Each reaction was set up in triplicate. Plates were incubated for 3 hours at 37°C. Following incubation, samples were centrifuged at 800g for 20 min, and 100 μl of supernatant was transferred to a flat-bottom 96-well plate (Genesse, 25-104). Percent hemolysis for each sample was determined by normalizing the absorbance at 540 nm for each sample to the average background and dividing by the average absorbance for 1% Triton X-100 (100% hemolysis). Error bars represent 1 SD of triplicate samples.

Data set [2] relates to Acinetobacter baumannii AB5075. On the procedure:
MICs were performed by a modifiedClinical and Laboratory Standards Institute) procedure. […] Separately, E. coli W3110 or A. baumannii AB5075 was grown overnight in 5 ml of standard MH at 37°C. Cells from these cultures were diluted to a concentration of 5 × 10^5 to 6 × 10^5 cells/ml in either standard MH, MHII, RPMI, or fetal bovine serum, and 90 μl was added to each well of the 96-well plate containing diluted peptide. Plates were wrapped twice in parafilm and incubated at 37°C for 18 to 24 hours. Wells were examined by eye against wells with no bacteria for signs of growth. MICs were reported as the minimum concentration with no observable growth. In cases where triplicate samples differed, the concentration supported by the median of the three replicates was reported. […]
For consistency, all SynCH peptides were resuspended at 10 mg/ml in water. Peptides were then visually inspected for any lack of solubility (Data File S1). […]
We had this library commercially synthesized and tested its ability to inhibit the growth of Acinetobacter baumannii AB5075, a clinically isolated Carbapenem Resistant Acinetobacter (CRA) pathogen. MICs were performed in MH as well as 100% FBS, which is likely more representative of the in vivo environment. […]

The subject of a further data set is Escherichia coli W3110. Type of data set: cell-based. To be noted: W3110.

Like-named read-outs stand apart in the source and are kept apart here. Bridge positions count the residues as written; N and C are the ends. Peptide text beside a SMILES is read from it. Where only a bound is given, the exact number is not on record here.

As for `CC[C@H](C)[C@@H]1NC(=O)[C@H](CCCNC(=N)N)NC(=O)[C@H](CC(C)C)NC(=O)[C@@H](N)CSSC[C@@H](C(=O)O)NC(=O)[C@H](C(C)C)NC(=O)[C@H](CCC(N)=O)NC(=O)[C@H](C(C)C)NC(=O)[C@H](CO)NC(=O)[C@H](C(C)C)NC(=O)[C@H](CCCNC(=N)N)NC(=O)[C@H](CC(C)C)NC(=O)CNC(=O)[C@H](CCCNC(=N)N)NC(=O)[C@H](CCCNC(=N)N)NC(=O)CNC(=O)[C@H](CC(N)=O)NC(=O)[C@H](CC(N)=O)NC(=O)[C@H](CC(C)C)NC(=O)[C@H](CCCNC(=N)N)NC1=O` [SyPA-4] (H-CLRIRLNNGRRGLRVSVQVC-OH; disulfide 1-20), in data set [1], the “%Hemo” value was determined as 1.59%.
With `CC[C@H](C)[C@@H]1NC(=O)[C@H](CCCNC(=N)N)NC(=O)[C@H](CC(C)C)NC(=O)[C@@H](N)CSSC[C@@H](C(=O)O)NC(=O)[C@H](C(C)C)NC(=O)[C@H](CCC(N)=O)NC(=O)[C@H](CC(C)C)NC(=O)[C@H](CO)NC(=O)[C@H](C(C)C)NC(=O)[C@H](CCCNC(=N)N)NC(=O)[C@H](CC(C)C)NC(=O)CNC(=O)[C@H](CCCNC(=N)N)NC(=O)[C@H](CCCNC(=N)N)NC(=O)[C@H](CCCNC(=N)N)NC(=O)[C@H](CC(=O)O)NC(=O)[C@H](CC(N)=O)NC(=O)[C@H](CC(C)C)NC(=O)[C@H](CCCNC(=N)N)NC1=O` [SyPA-5] (H-CLRIRLNDRRRGLRVSLQVC-OH; disulfide 1-20), in data set [1], the “%Hemo” value is listed as 1.89%.
The same measure, in the same setting: for `CC(C)C[C@@H]1NC(=O)CNC(=O)[C@H](CCCNC(=N)N)NC(=O)[C@H](CCCNC(=N)N)NC(=O)[C@H](CCCNC(=N)N)NC(=O)[C@H](CC(N)=O)NC(=O)[C@H](CC(N)=O)NC(=O)[C@H](CC(C)C)NC(=O)[C@H](CCCNC(=N)N)NC(=O)[C@H](C(C)C)NC(=O)[C@H]([C@@H](C)O)NC(=O)[C@H](C(C)C)NC(=O)[C@@H](N)CSSC[C@@H](C(=O)O)NC(=O)[C@H](C(C)C)NC(=O)[C@H](CCC(N)=O)NC(=O)[C@H](CC(C)C)NC(=O)[C@H](CO)NC(=O)[C@H](C(C)C)NC(=O)[C@H](CCCNC(=N)N)NC1=O` [SyPA-2] (H-CVTVRLNNRRRGLRVSLQVC-OH; disulfide 1-20) the value was 3.75%.
`CC(C)C[C@@H]1NC(=O)[C@H](CCCNC(=N)N)NC(=O)[C@H](C(C)C)NC(=O)[C@H](CCCNC(=N)N)NC(=O)[C@H](CC(C)C)NC(=O)[C@@H](N)CSSC[C@@H](C(=O)O)NC(=O)[C@H](C(C)C)NC(=O)[C@H](CCCNC(=N)N)NC(=O)[C@H](CC(C)C)NC(=O)[C@H](CO)NC(=O)[C@H](C(C)C)NC(=O)[C@H](CCCCN)NC(=O)[C@H](C(C)C)NC(=O)[C@H](CCCNC(=N)N)NC(=O)CNC(=O)[C@H](CCCNC(=N)N)NC(=O)[C@H](CCCNC(=N)N)NC(=O)[C@H](CC(N)=O)NC(=O)[C@H](CCCNC(=N)N)NC1=O` [SySA-5.1] (H-CLRVRLRNRRGRVKVSLRVC-OH; disulfide 1-20): in data set [2] (AB5075), the “AB5075 MIC FBS” value was 128 µg/mL and the “AB5075 MIC MH” value worked out at 8 µg/mL.
`CC(C)C[C@@H]1NC(=O)[C@H](CCCNC(=N)N)NC(=O)[C@H](C(C)C)NC(=O)[C@H](CCCCN)NC(=O)[C@H](CCCNC(=N)N)NC(=O)CNC(=O)[C@H](CCCNC(=N)N)NC(=O)[C@H](CCCNC(=N)N)NC(=O)[C@H](CCCNC(=N)N)NC(=O)[C@H](CC(C)C)NC(=O)[C@H](CCCNC(=N)N)NC(=O)[C@H](C(C)C)NC(=O)[C@H](CCCNC(=N)N)NC(=O)[C@H](CC(C)C)NC(=O)[C@@H](N)CSSC[C@@H](C(=O)O)NC(=O)[C@H](C(C)C)NC(=O)[C@H](CCC(N)=O)NC1=O` [SySA-5.11] (H-CLRVRLRRRGRKVRLQVC-OH; disulfide 1-18): in data set [2] (AB5075), the “AB5075 MIC FBS” value came out at 64 µg/mL and the “AB5075 MIC MH” value came out at 4 µg/mL.
In the same order, the values of `CC(C)C[C@@H]1NC(=O)[C@H](CCCNC(=N)N)NC(=O)[C@H](C(C)C)NC(=O)[C@H](CCCCN)NC(=O)[C@H](CCCNC(=N)N)NC(=O)[C@H](CCCNC(=N)N)NC(=O)[C@H](CCCNC(=N)N)NC(=O)[C@H](CCCNC(=N)N)NC(=O)[C@H](CC(C)C)NC(=O)[C@H](CCCNC(=N)N)NC(=O)[C@H](C(C)C)NC(=O)[C@H](CCCNC(=N)N)NC(=O)[C@H](CC(C)C)NC(=O)[C@@H](N)CSSC[C@@H](C(=O)O)NC(=O)[C@H](C(C)C)NC(=O)[C@H](CCCNC(=N)N)NC1=O` [SySA-5.20] (H-CLRVRLRRRRKVRLRVC-OH; disulfide 1-17) are 128 µg/mL and 4 µg/mL.
The matching figures for `CC(C)C[C@@H]1NC(=O)[C@H](CCCNC(=N)N)NC(=O)[C@H](C(C)C)NC(=O)[C@H](CCCNC(=N)N)NC(=O)[C@H](CC(C)C)NC(=O)[C@@H](N)CSSC[C@@H](C(=O)O)NC(=O)[C@H](C(C)C)NC(=O)[C@H](CCCNC(=N)N)NC(=O)[C@H](CC(C)C)NC(=O)[C@H](CCCNC(=N)N)NC(=O)[C@H](C(C)C)NC(=O)[C@H](CCCCN)NC(=O)[C@H](C(C)C)NC(=O)[C@H](CCCNC(=N)N)NC(=O)[C@H](CCCNC(=N)N)NC(=O)[C@H](CCCNC(=N)N)NC(=O)[C@H](CCCNC(=N)N)NC(=O)[C@H](CC(N)=O)NC(=O)[C@H](CCCNC(=N)N)NC1=O` [SySA-5.2] (H-CLRVRLRNRRRRVKVRLRVC-OH; disulfide 1-20): over 128 µg/mL and 4 µg/mL.
One may read the MIC as the smallest concentration in the dilution series that meets the test's criterion for growth inhibition. A high value points to a less susceptible organism. Take Protegrin-1 [reference compound]: in the data set on Escherichia coli W3110, the minimal inhibitory concentration (MIC) fell in the range of 0.5 to 4 µg/mL, the “W3110 MIC MH” value turned out to be 0.5 µg/mL and the “W3110 MIC RPMI” value is 0.5 µg/mL. For the same compound, the “AB5075 MIC FBS” value in data set [2] (100% fetal bovine serum, median of triplicate) worked out at 32 µg/mL. Moreover, the “AB5075 MIC MH” value in data set [2] (Mueller-Hinton, median of triplicate) worked out at 1 µg/mL.
On to `CC(C)C[C@@H]1NC(=O)[C@H](CO)NC(=O)[C@H](C(C)C)NC(=O)[C@H](CCCCN)NC(=O)[C@H](CCCNC(=N)N)NC(=O)CNC(=O)[C@H](CCCNC(=N)N)NC(=O)[C@H](CCCNC(=N)N)NC(=O)[C@H](CC(N)=O)NC(=O)[C@H](CC(C)C)NC(=O)[C@H](CCCNC(=N)N)NC(=O)[C@H](C(C)C)NC(=O)[C@H](CCCNC(=N)N)NC(=O)[C@@H](N)CSSC[C@@H](C(=O)O)NC(=O)[C@H](CCC(N)=O)NC1=O` [SySA-5.23] (H-CRVRLNRRGRKVSLQC-OH; disulfide 1-16), for which, in data set [2] (AB5075), the “AB5075 MIC FBS” value was over 128 µg/mL and the “AB5075 MIC MH” value turned out to be 8 µg/mL.
The matching figures for `CC(C)C[C@@H]1NC(=O)[C@H](CCCNC(=N)N)NC(=O)[C@H](C(C)C)NC(=O)[C@H](CCCCN)NC(=O)[C@H](C(C)C)NC(=O)[C@H](CCCNC(=N)N)NC(=O)[C@H](CCCNC(=N)N)NC(=O)[C@H](CCCNC(=N)N)NC(=O)[C@H](CCCNC(=N)N)NC(=O)[C@H](CC(N)=O)NC(=O)[C@H](CCCNC(=N)N)NC(=O)[C@H](CC(C)C)NC(=O)[C@H](CCCNC(=N)N)NC(=O)[C@H](C(C)C)NC(=O)[C@H](CCCNC(=N)N)NC(=O)[C@@H](N)CSSC[C@@H](C(=O)O)NC(=O)[C@H](CCCNC(=N)N)NC1=O` [SySA-5.7] (H-CRVRLRNRRRRVKVRLRC-OH; disulfide 1-18): over 128 µg/mL and 8 µg/mL.
The matching figures for `CC(C)C[C@@H]1NC(=O)[C@H](CO)NC(=O)[C@H](C(C)C)NC(=O)[C@H](CCCCN)NC(=O)[C@H](C(C)C)NC(=O)[C@H](CCCNC(=N)N)NC(=O)CNC(=O)[C@H](CCCNC(=N)N)NC(=O)[C@H](CCCNC(=N)N)NC(=O)[C@H](CC(N)=O)NC(=O)[C@H](CCCNC(=N)N)NC(=O)[C@H](CC(C)C)NC(=O)[C@H](CCCNC(=N)N)NC(=O)[C@H](C(C)C)NC(=O)[C@H](CCCNC(=N)N)NC(=O)[C@@H](N)CSSC[C@@H](C(=O)O)NC(=O)[C@H](CCCNC(=N)N)NC1=O` [SySA-5.6] (H-CRVRLRNRRGRVKVSLRC-OH; disulfide 1-18): 128 µg/mL and 4 µg/mL.
